Measurements as given in patent US9695154B2, “Heteroaryl inhibitors of sumo activating enzyme” (MILLENNIUM PHARMACEUTICALS, INC., priority 2013, dated 2017).

Biological target: T1, recombinant human SAE enzyme (Homo sapiens, UniProt Q9UBT2)
T1 sequence (Q9UBT2 1-640): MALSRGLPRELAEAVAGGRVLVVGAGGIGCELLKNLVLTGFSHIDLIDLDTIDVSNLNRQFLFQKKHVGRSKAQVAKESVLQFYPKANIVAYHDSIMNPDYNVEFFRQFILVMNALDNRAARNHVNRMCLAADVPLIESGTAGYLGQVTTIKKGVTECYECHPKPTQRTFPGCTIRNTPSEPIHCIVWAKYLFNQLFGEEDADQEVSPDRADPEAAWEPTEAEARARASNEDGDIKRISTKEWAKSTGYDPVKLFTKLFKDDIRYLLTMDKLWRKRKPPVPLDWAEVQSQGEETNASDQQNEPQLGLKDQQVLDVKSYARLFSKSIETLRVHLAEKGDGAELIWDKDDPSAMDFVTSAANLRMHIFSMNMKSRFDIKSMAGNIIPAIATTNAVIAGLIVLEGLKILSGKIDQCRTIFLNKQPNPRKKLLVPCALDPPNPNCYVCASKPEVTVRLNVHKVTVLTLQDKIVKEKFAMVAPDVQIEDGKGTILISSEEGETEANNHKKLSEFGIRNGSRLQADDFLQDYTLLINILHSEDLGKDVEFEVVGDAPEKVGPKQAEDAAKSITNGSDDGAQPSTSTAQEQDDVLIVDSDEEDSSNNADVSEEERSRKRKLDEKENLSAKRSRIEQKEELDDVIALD
T1 sequence (Q9UBE0 1-346 partner): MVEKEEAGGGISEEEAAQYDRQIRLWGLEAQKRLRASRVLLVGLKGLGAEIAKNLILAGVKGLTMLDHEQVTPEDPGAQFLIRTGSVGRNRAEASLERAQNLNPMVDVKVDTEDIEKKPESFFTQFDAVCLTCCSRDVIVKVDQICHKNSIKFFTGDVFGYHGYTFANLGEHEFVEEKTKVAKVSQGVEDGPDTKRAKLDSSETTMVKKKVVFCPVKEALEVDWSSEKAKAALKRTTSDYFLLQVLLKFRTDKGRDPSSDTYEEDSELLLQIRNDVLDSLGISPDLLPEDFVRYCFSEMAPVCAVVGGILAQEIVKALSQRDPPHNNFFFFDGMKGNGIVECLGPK
Experiment: SAE HTRF Enzyme Assay
Assay type: biochemical
Conditions: for IC50: class symbols A-C; for inhibition at 0.111 µM: compound concentration 0.111 μM, read-out: Percent Inhibition
In short: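 Reaction with 0.11 nM recombinant human SAE, 0.5 μM ATP, 0.01 μM Ubc9-GST, 0.125 μM Sumo-Flag in HEPES pH 7.5, MgCl2, GSH, BSA, 105 min at 24 °C. Stopped with EDTA/KF buffer carrying Eu-anti-Flag and anti-GST-APC; HTRF read after 2 h; % inhibition or IC50.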

SMILES | IC50 | inhibition at 0.111 µM
CC(C)n1ccc(C(=O)c2cncnc2N[C@@H]2C[C@H](COS(N)(=O)=O)[C@@H](O)[C@H]2O)n1 [Compound I-220, [(1R,2R,3S,4R)-2,3-dihydroxy-4-({5-[(1-isopropyl-1H-pyrazol-3-yl)carbonyl]pyrimidin-4-yl}amino)cyclopentyl]methyl sulfamate] | 10 to 100 nM | 57%
NS(=O)(=O)OC[C@H]1C[C@@H](Nc2ncncc2C(=O)c2ccn(Cc3cccc(I)c3)n2)[C@H](O)[C@@H]1O [Compound I-221, {(1R,2R,3S,4R)-2,3-dihydroxy-4-[(5-{[1-(3-iodobenzyl)-1H-pyrazol-3-yl]carbonyl}pyrimidin-4-yl)amino]cyclopentyl}methyl sulfamate] | < 10 nM | 100%
NS(=O)(=O)OC[C@H]1C[C@@H](Nc2ncncc2C(=O)c2ccn(CC3CCOCC3)c2)[C@@H](F)[C@@H]1O [Compound I-222, {(1R,2R,3R,4R)-3-fluoro-2-hydroxy-4-[(5-{[1-(tetrahydro-2H-pyran-4-ylmethyl)-1H-pyrrol-3-yl]carbonyl}pyrimidin-4-yl)amino]cyclopentyl}methyl sulfamate] | 10 to 100 nM | 63%
NS(=O)(=O)OC[C@H]1C[C@@H](Nc2ccncc2C(=O)c2ccn(Cc3cccc(Br)c3)n2)C[C@@H]1O [Compound I-223, {(1R,2S,4R)-4-[(3-{[1-(3-bromobenzyl)-1H-pyrazol-3-yl]carbonyl}pyridin-4-yl)amino]-2-hydroxycyclopentyl}methyl sulfamate] | < 10 nM | 99%
NS(=O)(=O)OC[C@H]1C[C@@H](Nc2ncncc2C(=O)c2ccn(Cc3cccc(OC(F)F)c3)c2)[C@@H](F)[C@@H]1O [Compound I-224, [(1R,2R,3R,4R)-4-{[5-({1-[3-(difluoromethoxy)benzyl]-1H-pyrrol-3-yl}carbonyl)pyrimidin-4-yl]amino}-3-fluoro-2-hydroxycyclopentyl]methyl sulfamate] | < 10 nM | 99%
NS(=O)(=O)OC[C@H]1C[C@@H](Nc2ncncc2C(=O)c2ccn(Cc3c(F)ccc(F)c3F)n2)[C@H](O)[C@@H]1O [Compound I-225, {(1R,2R,3S,4R)-2,3-dihydroxy-4-[(5-{[1-(2,3,6-trifluorobenzyl)-1H-pyrazol-3-yl]carbonyl}pyrimidin-4-yl)amino]cyclopentyl}methyl sulfamate] | < 10 nM | > 99%
NS(=O)(=O)OC[C@H]1C[C@@H](Nc2ncncc2C(=O)c2ccn(Cc3ccccc3C(F)(F)F)n2)C[C@@H]1O [Compound I-226, [(1R,2S,4R)-2-hydroxy-4-{[5-({1-[2-(trifluoromethyl)benzyl]-1H-pyrazol-3-yl}carbonyl)pyrimidin-4-yl]amino}cyclopentyl]methyl sulfamate] | 10 to 100 nM | 85%
NS(=O)(=O)OC[C@H]1C[C@@H](Nc2ncncc2C(=O)c2ccn(Cc3ccccc3)n2)[C@H](F)[C@@H]1O [Compound I-227, [(1R,2R,3S,4R)-4-({5-[(1-benzyl-1H-pyrazol-3-yl)carbonyl]pyrimidin-4-yl}amino)-3-fluoro-2-hydroxycyclopentyl]methyl sulfamate] | < 10 nM | 97%
CC#CCn1ccc(C(=O)c2cncnc2N[C@@H]2C[C@H](COS(N)(=O)=O)[C@@H](O)C2)n1 [Compound I-228, {(1R,2S,4R)-4-[(5-{[1-(but-2-yn-1-yl)-1H-pyrazol-3-yl]carbonyl}pyrimidin-4-yl)amino]-2-hydroxycyclopentyl}methyl sulfamate] | 10 to 100 nM | 72%
NS(=O)(=O)OC[C@H]1C[C@@H](Nc2ncncc2C(=O)c2ccn(Cc3cccc(Oc4ccc(F)cc4)c3)n2)[C@H](O)[C@@H]1O [Compound I-229, [(1R,2R,3S,4R)-4-{[5-({1-[3-(4-fluorophenoxy)benzyl]-1H-pyrazol-3-yl}carbonyl)pyrimidin-4-yl]amino}-2,3-dihydroxycyclopentyl]methyl sulfamate] | 10 to 100 nM | 88%
NS(=O)(=O)OC[C@H]1C[C@@H](Nc2ncncc2C(=O)c2ccn(Cc3cc(C(F)(F)F)ccc3F)n2)[C@H](O)[C@@H]1O [Compound I-230, [(1R,2R,3S,4R)-4-{[5-({1-[2-fluoro-5-(trifluoromethyl)benzyl]-1H-pyrazol-3-yl}carbonyl)pyrimidin-4-yl]amino}-2,3-dihydroxycyclopentyl]methyl sulfamate] | < 10 nM | 98%
NS(=O)(=O)OC[C@H]1C[C@@H](Nc2ncncc2C(=O)c2ccn(Cc3ccc(F)o3)c2)[C@@H](F)[C@@H]1O [Compound I-231, [(1R,2R,3R,4R)-3-fluoro-4-{[5-({1-[(5-fluoro-2-furyl)methyl]-1H-pyrrol-3-yl}carbonyl)pyrimidin-4-yl]amino}-2-hydroxycyclopentyl]methyl sulfamate] | < 10 nM | 99%
NS(=O)(=O)OC[C@H]1C[C@@H](Nc2ncncc2C(=O)c2ccn(Cc3sccc3Cl)n2)C[C@@H]1O [Compound I-232, [(1R,2S,4R)-4-{[5-({1-[(3-chloro-2-thienyl)methyl]-1H-pyrazol-3-yl}carbonyl)pyrimidin-4-yl]amino}-2-hydroxycyclopentyl]methyl sulfamate] | < 10 nM | 97%
NS(=O)(=O)OC[C@H]1C[C@@H](Nc2ccncc2C(=O)c2ccn(Cc3ccc(Cl)c(Cl)c3)c2)C[C@@H]1O [Compound I-233, {(1R,2S,4R)-4-[(3-{[1-(3,4-dichlorobenzyl)-1H-pyrrol-3-yl]carbonyl}pyridin-4-yl)amino]-2-hydroxycyclopentyl}methyl sulfamate] | < 10 nM | 98%
CCC#CCn1ccc(C(=O)c2cncnc2N[C@@H]2C[C@H](COS(N)(=O)=O)[C@@H](O)C2)n1 [Compound I-234, {(1R,2S,4R)-2-hydroxy-4-[(5-{[1-(pent-2-yn-1-yl)-1H-pyrazol-3-yl]carbonyl}pyrimidin-4-yl)amino]cyclopentyl}methyl sulfamate] | 10 to 100 nM | 91%
NS(=O)(=O)OC[C@H]1C[C@@H](Nc2ncncc2C(=O)c2ccn(Cc3ccc(C(F)F)o3)n2)C[C@@H]1O [Compound I-235, [(1R,2S,4R)-4-({5-[(1-{[5-(difluoromethyl)-2-furyl]methyl}-1H-pyrazol-3-yl)carbonyl]pyrimidin-4-yl}amino)-2-hydroxycyclopentyl]methyl sulfamate] | < 10 nM | 100%
COCC#CCn1ccc(C(=O)c2cncnc2N[C@@H]2C[C@H](COS(N)(=O)=O)[C@@H](O)[C@@H]2F)c1 [Compound I-236, {(1R,2R,3R,4R)-3-fluoro-2-hydroxy-4-[(5-{[1-(4-methoxybut-2-yn-1-yl)-1H-pyrrol-3-yl]carbonyl}pyrimidin-4-yl)amino]cyclopentyl}methyl sulfamate] | 10 to 100 nM | 54%
NS(=O)(=O)OC[C@H]1C[C@@H](Nc2ncncc2C(=O)c2ccn(Cc3cccc4nccn34)c2)[C@@H](F)[C@@H]1O [Compound I-237, {(1R,2R,3R,4R)-3-fluoro-2-hydroxy-4-[(5-{[1-(imidazo[1,2-a]pyridin-5-ylmethyl)-1H-pyrrol-3-yl]carbonyl}pyimidin-4-yl)amino]cyclopentyl}methyl sulfamate] | 10 to 100 nM | 85%
Cc1cc(C(=O)c2cncnc2N[C@@H]2C[C@H](COS(N)(=O)=O)[C@@H](O)C2)nn1Cc1cccc(Br)n1 [Compound I-238, [(1R,2S,4R)-4-{[5-({1-[(6-bromopyridin-2-yl)methyl]-5-methyl-1H-pyrazol-3-yl}carbonyl)pyrimidin-4-yl]amino}-2-hydroxycyclopentyl]methyl sulfamate] | < 10 nM | 99%
NS(=O)(=O)OC[C@H]1C[C@@H](Nc2ncncc2C(=O)c2ccn(Cc3cc(Br)ccc3Cl)n2)C[C@@H]1O [Compound I-239, {(1R,2S,4R)-4-[(5-{[1-(5-bromo-2-chlorobenzyl)-1H-pyrazol-3-yl]carbonyl}pyrimidin-4-yl)amino]-2-hydroxycyclopentyl}methyl sulfamate] | < 10 nM | 99%
NS(=O)(=O)OC[C@H]1C[C@@H](Nc2ncncc2C(=O)c2ccn(Cc3cccc(Br)c3)n2)[C@H](O)[C@@H]1O [Compound I-240, {(1R,2R,3S,4R)-4-[(5-{[1-(3-bromobenzyl)-1H-pyrazol-3-yl]carbonyl}pyrimidin-4-yl)amino]-2,3-dihydroxycyclopentyl}methyl sulfamate] | < 10 nM | 100%
